This experiment relates to P388 leukemia ip, CD2F1 mice, survival T/C. The experiment can be described thus: NCI In Vivo Anticancer Drug Screen. Data for tumor model P388 Leukemia (intraperitoneal) in CD2F1 (CDF1) mice. The note with it: endpoint: median survival time, higher = longer survival. The method, boiled down: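 Mice carrying the transplanted tumor received test compound or vehicle. Survival was recorded in each group, and the value is the treated-group measurement divided by that of the vehicle-treated control group.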

Setting [1] is: dose: 200.0 mg/kg/injection, schedule: Q01DX009 (ip), vehicle: saline with Tween-80.
[2] abbreviates: dose: 60.0 mg/kg/injection, schedule: Q01DX005 (ip), vehicle: saline with Tween-80.
The mark [3] stands for this setting: dose: 120.0 mg/kg/injection, schedule: Q01DX005 (ip), vehicle: saline with Tween-80.
[4] abbreviates: dose: 50.0 mg/kg/injection, schedule: Q01DX009 (ip), vehicle: Klucel (hydroxypropylcellulose) (HPC).
[5] abbreviates: dose: 100.0 mg/kg/injection, schedule: Q01DX009 (ip), vehicle: Klucel (hydroxypropylcellulose) (HPC).
[6] abbreviates: dose: 200.0 mg/kg/injection, schedule: Q01DX009 (ip), vehicle: Klucel (hydroxypropylcellulose) (HPC).
[7] abbreviates: dose: 200.0 mg/kg/injection, schedule: Q01DX009 (ip), vehicle: saline.
[8] abbreviates: dose: 200.0 mg/kg/injection, schedule: Q01DX005 (ip), vehicle: saline.
Where [9] appears, read: dose: 400.0 mg/kg/injection, schedule: Q01DX009 (ip), vehicle: saline with Tween-80.

Molecules are shown by their SMILES. “And” between values parts separate entries of the source, which are not always exact repeats. Equal entries are not always repeated. Toxic doses and inconclusive results are not listed.

Consider `C[C@@H]1C[C@H]2CC[C@H](O2)[C@H](C)C(=O)O[C@@H](C)C[C@@H]2CC[C@@H](O2)[C@@H](C)C(=O)O[C@H](C)C[C@H]2CC[C@H](O2)[C@H](C)C(=O)O[C@@H](C)C[C@@H]2CC[C@@H](O2)[C@@H](C)C(=O)O1`, for which the T/C is 100 % of control (dose: 132.0 mg/kg/injection, schedule: Q01DX009 (ip), vehicle: saline with Tween-80); 104 % of control under setting [1]; 104 % of control (dose: 300.0 mg/kg/injection, schedule: Q01DX009 (ip), vehicle: saline with Tween-80).

For `Cc1nn(C(=O)c2ccccn2)c(-c2ccccc2)c1N=Nc1ccc(S(=O)(=O)Nc2ncccn2)cc1`, the T/C was 102 % of control under setting [2] and 100 % of control under setting [3].

Turning to `CC1CC[P+](c2ccccc2)(c2ccccc2)c2c1ccc1ccccc21` (centres undefined), the T/C reads like this: (dose: 6.25 mg/kg/injection, schedule: Q04DX002 (ip), vehicle: saline) 118 % of control; (dose: 12.5 mg/kg/injection, schedule: Q04DX002 (ip), vehicle: saline) 108 % of control.

On to `CN(C)/N=C1\C(=O)Nc2c(Cl)cc(Cl)cc21`, for which the T/C under setting [4] is 94 % of control, the T/C under setting [5] was 94 % of control and the T/C under setting [6] was 94 % of control.

Consider `ClC1=CC(Cl)=C2N=C(C(Cl)(Cl)Cl)N=C3N=C(C(Cl)(Cl)Cl)N=C1N32`, for which the T/C by setting is: (dose: 15.0 mg/kg/injection, schedule: Q01DX005 (ip), vehicle: Klucel + Tween-80) 101 % of control; (dose: 30.0 mg/kg/injection, schedule: Q01DX005 (ip), vehicle: Klucel + Tween-80) 95 % of control; (dose: 60.0 mg/kg/injection, schedule: Q01DX005 (ip), vehicle: Klucel + Tween-80) 99 % of control and 100 % of control.

As to `Cc1cccc(O)c1O`, the T/C was 102 % of control (dose: 100.0 mg/kg/injection, schedule: Q01DX009 (ip), vehicle: saline); 121 % of control and 122 % of control under setting [7].

Take `CCN(CC)CCCC(C)Nc1cc(-c2ccccc2)nc2cc(Cl)ccc12` (centres undefined): the T/C by setting is: (dose: 50.0 mg/kg/injection, schedule: Q01DX005 (ip), vehicle: saline) 106 % of control; (dose: 100.0 mg/kg/injection, schedule: Q01DX005 (ip), vehicle: saline) 112 % of control; under setting [8], 116 % of control.

Turning to `COC1CC(C)(O)Cc2cc3c(c(O)c21)C(=O)c1c(O)cc2c(c1C3=O)OC1OC2(C)C(O)C(N(C)C)C1O` (centres undefined), the T/C is 158 % of control (dose: 6.25 mg/kg/injection, schedule: Q01DX009 (ip), vehicle: other); 176 % of control (dose: 12.5 mg/kg/injection, schedule: Q01DX009 (ip), vehicle: other); 168 % of control (dose: 25.0 mg/kg/injection, schedule: Q01DX009 (ip), vehicle: other).

On to `CCN(CC)c1ccc(N=C(NC#N)SC)cc1`, for which the T/C is 104 % of control under setting [4], 103 % of control under setting [5] and 106 % of control under setting [6].

For `Nc1c(C(=O)NCCc2ccccc2)c2nc3c(C(=O)NCCc4ccccc4)cccc3oc-2cc1=O`, the T/C reads like this: (dose: 50.0 mg/kg/injection, schedule: Q01DX005 (ip), vehicle: saline with Tween-80) 96 % of control; (dose: 100.0 mg/kg/injection, schedule: Q01DX005 (ip), vehicle: saline with Tween-80) 89 % of control; (dose: 200.0 mg/kg/injection, schedule: Q01DX005 (ip), vehicle: saline with Tween-80) 105 % of control.

Take `CN1NC(c2ccccc2)=C(C#N)C(=O)CC1c1cccs1` (centres undefined): the T/C under setting [2] is 95 % of control; the T/C under setting [3] was 88 % of control; the T/C (dose: 240.0 mg/kg/injection, schedule: Q01DX005 (ip), vehicle: saline with Tween-80) was 96 % of control.

Turning to `COc1cccc2c1C(=O)c1c(O)c3c(c(O)c1C2=O)CC(O)(C(C)=O)CC3OC1CC(NCC2OC(C(=O)O)C(O)C2O)C(O)C(C)O1` (centres undefined), the T/C (dose: 3.13 mg/kg/injection, schedule: Q04DX003 (ip), vehicle: water) was 99 % of control; the T/C (dose: 6.25 mg/kg/injection, schedule: Q04DX003 (ip), vehicle: water) was 102 % of control; the T/C (dose: 12.5 mg/kg/injection, schedule: Q04DX003 (ip), vehicle: water) was 109 % of control; the T/C (dose: 25.0 mg/kg/injection, schedule: Q04DX003 (ip), vehicle: water) was 116 % of control; the T/C (dose: 50.0 mg/kg/injection, schedule: Q04DX003 (ip), vehicle: water) was 110 % of control.

On to `COc1cccc(CCNC(=O)CCN2C(=O)CCC2=O)c1`, for which the T/C (dose: 100.0 mg/kg/injection, schedule: Q01DX009 (ip), vehicle: saline with Tween-80) is 105 % of control; the T/C under setting [1] is 100 % of control; the T/C under setting [9] is 110 % of control.

Take `C=C1C(=O)C23C(O)CC4C5(C)CCCC4(C(O)OC5)C2C(OC(C)=O)CC1C3O` (centres undefined): the T/C reads like this: (dose: 4.0 mg/kg/injection, schedule: Q01DX009 (ip), vehicle: other) 115 % of control; (dose: 4.0 mg/kg/injection, schedule: Q01DX009 (ip), vehicle: water) 114 % of control; (dose: 8.0 mg/kg/injection, schedule: Q01DX009 (ip), vehicle: water) 116 % of control; (dose: 16.0 mg/kg/injection, schedule: Q01DX009 (ip), vehicle: other) 122 % of control; (dose: 16.0 mg/kg/injection, schedule: Q01DX009 (ip), vehicle: water) 114 % of control; (dose: 32.0 mg/kg/injection, schedule: Q01DX009 (ip), vehicle: water) 107 % of control.

As to `CN=C(N)N/N=C(\c1ccccc1)c1ccc(I)cc1`, the T/C was 104 % of control (dose: 25.0 mg/kg/injection, schedule: Q04DX002 (ip), vehicle: saline with Tween-80); 107 % of control (dose: 50.0 mg/kg/injection, schedule: Q04DX002 (ip), vehicle: saline with Tween-80); 107 % of control (dose: 100.0 mg/kg/injection, schedule: Q04DX002 (ip), vehicle: saline with Tween-80).

Consider `Nc1ccn(C2OC(CO)C(O)C2O)c(=O)n1` (centres undefined), for which the T/C is 160 % of control (dose: 2.0 mg/kg/injection, schedule: Q01DX009 (ip), vehicle: saline); 160 % of control (dose: 10.0 mg/kg/injection, schedule: Q01DX005 (ip), vehicle: saline); 190 % of control (dose: 60.0 mg/kg/injection, schedule: Q01DX005 (ip), vehicle: saline); 120 % of control (dose: 100.0 mg/kg/injection, schedule: Q04DX002 (ip), vehicle: saline); 170 % of control and 250 % of control (dose: 128.0 mg/kg/injection, schedule: Q01DX009 (ip), vehicle: saline); 200 % of control under setting [8]. The T/C is 100 % of control under setting [7]; 100 % of control (dose: 200.0 mg/kg/injection, schedule: Q04DX003 (ip), vehicle: saline); 190 % of control (dose: 324.0 mg/kg/injection, schedule: Q04DX003 (ip), vehicle: saline); 100 % of control under setting [9]; 99 % of control and 110 % of control (dose: 400.0 mg/kg/injection, schedule: Q01DX009 (ip), vehicle: saline); 200 % of control (dose: 500.0 mg/kg/injection, schedule: Q04DX003 (ip), vehicle: saline). In addition, the T/C (dose: 512.0 mg/kg/injection, schedule: Q01DX009 (ip), vehicle: saline) is 90 % of control; the T/C (dose: 800.0 mg/kg/injection, schedule: Q01DX009 (ip), vehicle: saline with Tween-80) is 99 % of control; the T/C (dose: 800.0 mg/kg/injection, schedule: Q01DX009 (ip), vehicle: saline) was 110 % of control and 91 % of control; the T/C (dose: 900.0 mg/kg/injection, schedule: Q04DX003 (ip), vehicle: saline) is 210 % of control; the T/C (dose: 1200.0 mg/kg/injection, schedule: Q01DX009 (ip), vehicle: saline with Tween-80) is 100 % of control; the T/C (dose: 1600.0 mg/kg/injection, schedule: Q01DX009 (ip), vehicle: saline) was 91 % of control. The T/C by setting is: (dose: 1600.0 mg/kg/injection, schedule: Q04DX002 (ip), vehicle: saline) 120 % of control; (dose: 2400.0 mg/kg/injection, schedule: Q01DX009 (ip), vehicle: saline with Tween-80) 90 % of control.

For `CC(=O)OC(C(=O)CBr)C(OC(C)=O)C(OC(C)=O)C(=O)CBr` (centres undefined), the T/C was 114 % of control (dose: 12.5 mg/kg/injection, schedule: Q01DX009 (ip), vehicle: Klucel (hydroxypropylcellulose) (HPC)) and 96 % of control (dose: 25.0 mg/kg/injection, schedule: Q01DX009 (ip), vehicle: Klucel (hydroxypropylcellulose) (HPC)).
